Measurements from ChEMBL document CHEMBL1909046, “DrugMatrix in vitro pharmacology data”.

Assays:
[1] = target: T1, Alpha-1B adrenergic receptor (Rattus norvegicus, UniProt P15823); assay: DRUGMATRIX: Alpha-1B adrenergic receptor radioligand binding (ligand: prazosin); assay type: cell membranes, Wistar, Liver, Membrane; details: Not Active = under 50% inhibition at 10 µM
T1 sequence (P15823 whole entry): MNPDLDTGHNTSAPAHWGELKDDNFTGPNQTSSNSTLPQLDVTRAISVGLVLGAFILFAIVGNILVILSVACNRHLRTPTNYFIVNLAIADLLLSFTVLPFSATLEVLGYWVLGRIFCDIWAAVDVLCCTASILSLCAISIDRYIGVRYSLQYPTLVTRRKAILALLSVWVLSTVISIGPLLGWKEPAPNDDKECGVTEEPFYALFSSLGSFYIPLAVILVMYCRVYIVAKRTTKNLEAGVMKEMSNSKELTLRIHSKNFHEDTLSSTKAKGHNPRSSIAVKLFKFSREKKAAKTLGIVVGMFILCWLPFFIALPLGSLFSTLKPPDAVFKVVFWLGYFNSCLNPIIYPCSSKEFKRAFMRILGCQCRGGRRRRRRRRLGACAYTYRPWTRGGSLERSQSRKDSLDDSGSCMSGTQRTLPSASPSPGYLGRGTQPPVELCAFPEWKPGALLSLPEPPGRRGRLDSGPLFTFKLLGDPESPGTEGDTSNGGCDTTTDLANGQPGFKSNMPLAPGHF

[2] = DRUGMATRIX: Atrial Natriuretic Factor (ANF) radioligand binding (ligand: [125I] ANF (rat)); assay type: cell membranes, Cavia porcellus, Dunkin-Hartley, Adrenal gland, Membrane; details: Not Active = under 50% inhibition at 10 µM
[3] = target: T2, Neuropeptide Y receptor type 1 (Homo sapiens, UniProt P25929); assay type: cell membranes, Membrane; details: sk-n-mc; also: in other assays of this panel Not Active means under 50% inhibition at 10 µM
T2 sequence (P25929 whole entry): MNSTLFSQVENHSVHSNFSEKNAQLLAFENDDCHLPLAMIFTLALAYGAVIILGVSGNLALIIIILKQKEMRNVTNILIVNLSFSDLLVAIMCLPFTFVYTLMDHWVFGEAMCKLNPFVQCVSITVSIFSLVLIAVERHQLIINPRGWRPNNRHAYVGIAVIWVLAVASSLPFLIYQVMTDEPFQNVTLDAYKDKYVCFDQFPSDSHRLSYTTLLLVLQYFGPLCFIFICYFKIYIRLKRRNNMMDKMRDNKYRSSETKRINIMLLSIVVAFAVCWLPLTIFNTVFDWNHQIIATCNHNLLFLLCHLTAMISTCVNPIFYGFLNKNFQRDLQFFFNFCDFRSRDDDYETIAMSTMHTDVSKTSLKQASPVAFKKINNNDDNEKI

[4] = DRUGMATRIX: Tumor Necrosis Factor (TNF), Non-Selective radioligand binding (ligand: [125I] TNF-alpha); assay type: cell membranes, Membrane; details: u-937; Not Active = under 50% inhibition at 10 µM
[5] = target: T3, Cysteinyl leukotriene receptor 1 (Homo sapiens, UniProt Q9Y271); assay type: cell membranes, Membrane; details: cho-k1; also: in other assays of this panel Not Active means under 50% inhibition at 10 µM
T3 sequence (Q9Y271 whole entry): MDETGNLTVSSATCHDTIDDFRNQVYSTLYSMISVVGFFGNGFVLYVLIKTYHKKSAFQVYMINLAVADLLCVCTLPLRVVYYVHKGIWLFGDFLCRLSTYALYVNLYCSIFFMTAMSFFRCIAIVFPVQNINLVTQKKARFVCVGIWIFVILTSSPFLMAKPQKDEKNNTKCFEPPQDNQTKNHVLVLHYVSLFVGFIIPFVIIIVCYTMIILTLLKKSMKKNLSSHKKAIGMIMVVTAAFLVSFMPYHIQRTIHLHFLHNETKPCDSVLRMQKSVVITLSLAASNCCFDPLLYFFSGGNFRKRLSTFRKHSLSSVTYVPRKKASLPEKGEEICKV

[6] = target: T4, Nitric oxide synthase, inducible (Mus musculus, UniProt P29477); parameters: species or system Escherichia coli;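 also: inhibition of iNOS enzyme activity measured with L-arginine as substrate; in other assays of this panel Not Active means under 50% inhibition at 10 µM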
T4 sequence (P29477 whole entry): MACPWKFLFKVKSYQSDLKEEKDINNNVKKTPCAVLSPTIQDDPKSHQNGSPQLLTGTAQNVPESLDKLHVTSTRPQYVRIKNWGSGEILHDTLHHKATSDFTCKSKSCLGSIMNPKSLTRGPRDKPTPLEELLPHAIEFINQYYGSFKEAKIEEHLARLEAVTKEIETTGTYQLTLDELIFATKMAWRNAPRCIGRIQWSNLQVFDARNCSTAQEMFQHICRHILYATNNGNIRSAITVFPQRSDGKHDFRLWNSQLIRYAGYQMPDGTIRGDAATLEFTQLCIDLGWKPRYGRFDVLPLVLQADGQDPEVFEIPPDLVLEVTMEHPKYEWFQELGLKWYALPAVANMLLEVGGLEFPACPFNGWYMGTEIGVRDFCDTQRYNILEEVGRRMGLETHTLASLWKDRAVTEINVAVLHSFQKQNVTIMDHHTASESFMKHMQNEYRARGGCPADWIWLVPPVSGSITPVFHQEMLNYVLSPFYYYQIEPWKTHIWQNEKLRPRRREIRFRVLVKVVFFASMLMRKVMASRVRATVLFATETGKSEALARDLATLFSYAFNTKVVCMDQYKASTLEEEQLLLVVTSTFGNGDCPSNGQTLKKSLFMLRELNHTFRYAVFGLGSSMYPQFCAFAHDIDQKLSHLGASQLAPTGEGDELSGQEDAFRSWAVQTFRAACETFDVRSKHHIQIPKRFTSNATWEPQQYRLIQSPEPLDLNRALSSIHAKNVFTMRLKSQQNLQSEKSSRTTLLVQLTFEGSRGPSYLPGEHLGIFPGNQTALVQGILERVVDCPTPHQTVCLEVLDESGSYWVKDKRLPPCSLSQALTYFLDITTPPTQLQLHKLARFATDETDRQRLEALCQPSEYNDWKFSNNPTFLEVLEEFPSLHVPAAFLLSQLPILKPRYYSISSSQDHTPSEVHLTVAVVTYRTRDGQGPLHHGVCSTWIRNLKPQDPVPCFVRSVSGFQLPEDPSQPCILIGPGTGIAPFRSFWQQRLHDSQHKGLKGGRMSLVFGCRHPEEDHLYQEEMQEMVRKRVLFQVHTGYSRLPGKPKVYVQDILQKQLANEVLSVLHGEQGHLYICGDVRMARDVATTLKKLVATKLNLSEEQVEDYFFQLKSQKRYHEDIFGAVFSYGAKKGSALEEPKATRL

[7] = DRUGMATRIX: Sodium/nucleoside co-transporter radioligand binding (ligand: nitrobenzylthioinosine); assay type: cell membranes, Cavia porcellus, Dunkin-Hartley, Cerebral cortex, Membrane; details: Not Active = under 50% inhibition at 10 µM
[8] = target: T5, Leukotriene C4 synthase (Cavia porcellus, UniProt A6XA80); assay type: tissue-based, Lung;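 also: enzyme inhibition assay of leukotriene C4 synthase, using LTA4 as the substrate; in other assays of this panel Not Active means under 50% inhibition at 10 µM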
T5 sequence (A6XA80 whole entry): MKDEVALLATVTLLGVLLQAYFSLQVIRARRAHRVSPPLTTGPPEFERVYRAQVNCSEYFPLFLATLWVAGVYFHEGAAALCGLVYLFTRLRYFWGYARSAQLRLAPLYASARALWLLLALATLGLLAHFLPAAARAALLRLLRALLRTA

Cc1nnc2n1-c1ccc(Cl)cc1C(c1ccccc1)=NC2 [ALPRAZOLAM]
Not Active: IC50 [1] | IC50 [2] | Ki [2] | IC50 [3] | IC50 [4] | Ki [4] | IC50 [5] | IC50 [6] | IC50 [7] | Ki [7] | IC50 [8]

CC(C)=CCC/C(C)=C/CO [GERANIOL]
Not Active: IC50 [1] | IC50 [2] | Ki [2] | IC50 [3] | IC50 [4] | Ki [4] | IC50 [5] | IC50 [6] | IC50 [7] | Ki [7] | IC50 [8]

COc1ccc(C(=O)N2CCCC2=O)cc1
Not Active: IC50 [1] | IC50 [2] | Ki [2] | IC50 [3] | IC50 [4] | Ki [4] | IC50 [5] | IC50 [6] | IC50 [7] | Ki [7] | IC50 [8]

GENTAMICIN
Not Active: IC50 [1] | Ki [1] | IC50 [2] | Ki [2] | IC50 [3] | Ki [3] | IC50 [4] | Ki [4] | IC50 [5] | Ki [5] | IC50 [6] | Ki [6] | IC50 [7] | Ki [7] | IC50 [8] | Ki [8]

CC(C)NNC(=O)c1ccncc1 [IPRONIAZID]
Not Active: IC50 [1] | IC50 [2] | Ki [2] | IC50 [3] | IC50 [4] | Ki [4] | IC50 [5] | IC50 [6] | IC50 [7] | Ki [7] | IC50 [8]

O=c1cc(N2CCOCC2)oc2c(-c3ccccc3)cccc12 [LY-294002]
Not Active: IC50 [1] | IC50 [2] | Ki [2] | IC50 [3] | IC50 [4] | Ki [4] | IC50 [5] | IC50 [6] | IC50 [7] | Ki [7] | IC50 [8]

NCCCC(O)(P(=O)(O)O)P(=O)(O)O [ALENDRONIC ACID]
Not Active: IC50 [1] | IC50 [2] | Ki [2] | IC50 [3] | IC50 [4] | Ki [4] | IC50 [5] | IC50 [6] | IC50 [7] | Ki [7] | IC50 [8]

Nc1ccc2c3c(cccc13)C(=O)NC2=O
Not Active: IC50 [1] | IC50 [2] | Ki [2] | IC50 [3] | IC50 [4] | Ki [4] | IC50 [5] | IC50 [6] | IC50 [7] | Ki [7] | IC50 [8]

CC(C)(C)NC(=O)[C@H]1CC[C@H]2[C@@H]3CC[C@H]4NC(=O)C=C[C@]4(C)[C@H]3CC[C@]12C [FINASTERIDE]
Not Active: IC50 [1] | IC50 [2] | Ki [2] | IC50 [3] | IC50 [4] | Ki [4] | IC50 [5] | IC50 [6] | IC50 [7] | Ki [7] | IC50 [8]

CC[C@H](C)[C@H]1O[C@]2(C=C[C@@H]1C)C[C@@H]1C[C@@H](C/C=C(\C)[C@@H](O[C@H]3C[C@H](OC)[C@@H](O[C@H]4C[C@H](OC)[C@@H](O)[C@H](C)O4)[C@H](C)O3)[C@@H](C)/C=C/C=C3\CO[C@@H]4[C@H](O)C(C)=C[C@@H](C(=O)O1)[C@]34O)O2.CO[C@H]1C[C@H](O[C@H]2[C@H](C)O[C@@H](O[C@@H]3/C(C)=C/C[C@@H]4C[C@@H](C[C@]5(C=C[C@H](C)[C@@H](C(C)C)O5)O4)OC(=O)[C@@H]4C=C(C)[C@@H](O)[C@H]5OC/C(=C\C=C\[C@@H]3C)[C@]54O)C[C@@H]2OC)O[C@@H](C)[C@@H]1O [ABAMECTIN]
Not Active: IC50 [1] | IC50 [2] | Ki [2] | IC50 [3] | IC50 [4] | Ki [4] | IC50 [5] | IC50 [6] | IC50 [7] | Ki [7] | IC50 [8]

Cn1c(=O)c2[nH]cnc2n(C)c1=O.Cn1c(=O)c2[nH]cnc2n(C)c1=O.NCCN [AMINOPHYLLINE]
Not Active: IC50 [1] | IC50 [2] | Ki [2] | IC50 [3] | IC50 [4] | Ki [4] | IC50 [5] | IC50 [6] | IC50 [7] | Ki [7] | IC50 [8]

C#C[C@]1(OC(C)=O)CC[C@H]2[C@@H]3CCC4=C[C@@H](OC(C)=O)CC[C@@H]4[C@H]3CC[C@@]21C [ETHYNODIOL DIACETATE]
Not Active: IC50 [1] | IC50 [2] | Ki [2] | IC50 [3] | IC50 [4] | Ki [4] | IC50 [5] | IC50 [6] | IC50 [7] | Ki [7] | IC50 [8]

CN/C(=N\CCSCc1nc[nH]c1C)NC#N [CIMETIDINE]
Not Active: IC50 [1] | IC50 [2] | Ki [2] | IC50 [3] | IC50 [4] | Ki [4] | IC50 [5] | IC50 [6] | IC50 [7] | Ki [7] | IC50 [8]

COc1ccc2c3c1O[C@H]1C[C@@H](O)C=C[C@@]31CCN(C)C2 [GALANTAMINE]
Not Active: IC50 [1] | IC50 [2] | Ki [2] | IC50 [3] | IC50 [4] | Ki [4] | IC50 [5] | IC50 [6] | IC50 [7] | Ki [7] | IC50 [8]
